From US20100256137A1, “INDAZOLAMIDE DERIVATIVES” (MERCK PATENT GESELLSCHAFT MIT BESCHRANKTER HAFTUNG, priority 2007, published 2010)

These compounds were tested against T1, Recombinant human HSP90a (Homo sapiens, UniProt P07900) (assay: HSP90 radioligand filter binding test ([3H]17AAG competition)). Conditions: [3H]17AAG 0.08 μM, HSP90 1.5 μg/assay, 22° C., 30 min, pH 7.0; read-out: IC50 (HSP90 inhibition).
T1 construct: host or cells: E. coli
Description: In the specific case, a radioligand filter binding test is used. The radioligand used here is tritium-labelled 17-allylaminogeldanamycin, [3H]17AAG. This filter binding test allows a targeted search for inhibitors which interfere with the ATP binding site.
HEPES filter buffer (50 mM HEPES, pH 7.0, 5 mM MgCl2, BSA 0.01%)
Multiscreen FB (1 μm) filter plate (Millipore, MAFBNOB 50).
The 96-well microtitre filter plates are firstly irrigated and coated with 0.1% of polyethylenimine.
The test is carried out under the following conditions:
Reaction temperature 22° C.
Reaction time: 30 min., shaking at 800 rpm
50 mM HEPES HCl, pH 7.0, 5 mM MgCl2, 0.01% (w/v) of BSA
At the end of the reaction, the supernatant in the filter plate is removed by suction with the aid of a vacuum manifold (Multiscreen Separation System, Millipore), and the filter is washed twice.
The filter plates are then measured in a beta counter (Microbeta, Wallac) with scintillator (Microscint 20, Packard).
“% of control” is determined from the “counts per minutes” values, and the IC-50 value of a compound is calculated therefrom.

Row | IC50 [µM] | Compound
1 | 0.01 to 1 | Cc1cccc(Cc2n[nH]c3cc(O)c(C(=O)N4Cc5ccccc5C4)cc23)c1 [Compound A1, 5-(1,3-dihydroisoindol-2-ylcarbonyl)-3-(3-methylbenzyl)-6-hydroxy-1H-indazole]
2 | 0.01 to 1 | Cc1cccc(Cc2n[nH]c3cc(O)c(C(=O)N4CCc5ccccc5C4)cc23)c1 [Compound A2]
3 | 0.01 to 1 | COc1cccc(Cc2n[nH]c3cc(O)c(C(=O)N4Cc5ccccc5C4)cc23)c1 [Compound A3, 5-(1,3-Dihydroisoindol-2-ylcarbonyl)-3-(3-methoxybenzyl)-6-hydroxy-1H-indazole]
4 | 0.01 to 1 | CCCCc1n[nH]c2cc(O)c(C(=O)N3Cc4ccccc4C3)cc12 [Compound A4, 5-(1,3-Dihydroisoindol-2-ylcarbonyl)-3-butyl-6-hydroxy-1H-indazole]
5 | 0.01 to 1 | O=C(c1cc2c(Cc3cccc(Cl)c3)n[nH]c2cc1O)N1CCC(O)C1 (stereo not drawn) [Compound A5, 5-(3-Hydroxypyrrolidin-1-ylcarbonyl)-3-(3-chlorobenzyl)-6-hydroxy-1H-indazole]
6 | 0.01 to 1 | O=C(c1cc2c(Cc3cccc(Cl)c3)n[nH]c2cc1O)N1CC[C@@H](O)C1 [Compound A7, 5-((R)-3-Hydroxypyrrolidin-1-ylcarbonyl)-3-(3-chlorobenzyl)-6-hydroxy-1H-indazole]
7 | 0.01 to 1 | Cc1cccc(Cc2n[nH]c3cc(O)c(C(=O)N4CCOCC4)cc23)c1 [Compound A10]
8 | 0.01 to 1 | Cc1cccc(Cc2n[nH]c3cc(O)c(C(=O)N4CCc5ccccc54)cc23)c1 [Compound A11]
9 | 1 to 10 | CCCCc1n[nH]c2cc(O)c(C(=O)N3Cc4ccc(Br)cc4C3)cc12 [Compound A14, 5-(5-Bromo-1,3-dihydroisoindol-2-ylcarbonyl)-3-butyl-6-hydroxy-1H-indazole]
10 | 0.01 to 1 | CCCc1n[nH]c2cc(O)c(C(=O)N3Cc4ccc(Br)cc4C3)cc12 [Compound A15, 5-(5-Bromo-1,3-dihydroisoindol-2-ylcarbonyl)-3-propyl-6-hydroxy-1H-indazole]
11 | 0.01 to 1 | Cc1cccc(Cc2n[nH]c3cc(O)c(C(=O)N4CCCC4)cc23)c1 [Compound A16, 5-(Pyrrolidin-1-ylcarbonyl)-3-(3-methylbenzyl)-6-hydroxy-1H-indazole]
12 | 0.01 to 1 | Cc1cccc(Cc2n[nH]c3cc(O)c(C(=O)N4CCN(C)CC4)cc23)c1 [Compound A17]
13 | 0.01 to 1 | O=C(c1cc2c(CC3CCCC3)n[nH]c2cc1O)N1Cc2ccccc2C1 [Compound A18, 5-(1,3-Dihydroisoindol-2-ylcarbonyl)-3-cyclopentylmethyl-6-hydroxy-1H-indazole]
14 | 0.01 to 1 | CCCc1n[nH]c2cc(O)c(C(=O)N3Cc4ccc(N5CCOCC5)cc4C3)cc12 [Compound A19]
15 | 0.01 to 1 | CCCc1n[nH]c2cc(O)c(C(=O)N3Cc4ccc(N5CCN(C)CC5)cc4C3)cc12 [Compound A20]
16 | 0.01 to 1 | CCCc1n[nH]c2cc(O)c(C(=O)N3Cc4ccc(OCCN(C)C)cc4C3)cc12 [Compound A26, [5-(2-dimethylaminoethoxy)-1,3-dihydroisoindol-2-yl]-(6-hydroxy-3-propyl-1H-indazol-5-yl)methanone]
17 | 0.01 to 1 | CC(C)CCc1n[nH]c2cc(O)c(C(=O)N3Cc4ccc(OCCN(C)C)cc4C3)cc12 [Compound A27, [5-(2-dimethylaminoethoxy)-1,3-dihydroisoindol-2-yl]-[6-hydroxy-3-(3-methylbutyl)-1H-indazol-5-yl]methanone]
18 | 0.01 to 1 | CN(C)CCOc1ccc2c(c1)CN(C(=O)c1cc3c(CC4CCCC4)n[nH]c3cc1O)C2 [Compound A28, (3-cyclopentylmethyl-6-hydroxy-1H-indazol-5-yl)-[5-(2-dimethylaminoethoxy)-1,3-dihydroisoindol-2-yl]methanone]

Row | IC50 [µM] | Compound
19 | 0.01 to 1 | CN(C)CCOc1ccc2c(c1)CN(C(=O)c1cc3c(CC4CCCCC4)n[nH]c3cc1O)C2 [Compound A29, (3-cyclohexylmethyl-6-hydroxy-1H-indazol-5-yl)-[5-(2-dimethylaminoethoxy)-1,3-dihydroisoindol-2-yl]methanone]
20 | 0.01 to 1 | CC(C)CCc1n[nH]c2cc(O)c(C(=O)N3Cc4ccc(OC5CCN(C)CC5)cc4C3)cc12 [Compound A30, [6-hydroxy-3-(3-methylbutyl)-1H-indazol-5-yl]-[5-(1-methylpiperidin-4-yloxy)-1,3-dihydroisoindol-2-yl]methanone]
21 | 0.01 to 1 | CN1CCC(Oc2ccc3c(c2)CN(C(=O)c2cc4c(CC5CCCC5)n[nH]c4cc2O)C3)CC1 [Compound A31, (3-cyclopentylmethyl-6-hydroxy-1H-indazol-5-yl)-[5-(1-methylpiperidin-4-yloxy)-1,3-dihydroisoindol-2-yl]methanone]
22 | 0.01 to 1 | CN1CCC(Oc2ccc3c(c2)CN(C(=O)c2cc4c(CC5CCCCC5)n[nH]c4cc2O)C3)CC1 [Compound A32, (3-Cyclohexylmethyl-6-hydroxy-1H-indazol-5-yl)-[5-(1-methylpiperidin-4-yloxy)-1,3-dihydroisoindol-2-yl]methanone]
23 | 0.01 to 1 | CC(C)CCc1n[nH]c2cc(O)c(C(=O)N3Cc4ccc(OCCCN(C)C)cc4C3)cc12 [Compound A33, [5-(3-Dimethylaminopropoxy)-1,3-dihydroisoindol-2-yl]-[6-hydroxy-3-(3-methylbutyl)-1H-indazol-5-yl]methanone]
24 | 0.01 to 1 | CN(C)CCCOc1ccc2c(c1)CN(C(=O)c1cc3c(CC4CCCC4)n[nH]c3cc1O)C2 [Compound A34]
25 | 0.01 to 1 | CN(C)CCCOc1ccc2c(c1)CN(C(=O)c1cc3c(CC4CCCCC4)n[nH]c3cc1O)C2 [Compound A35, (3-Cyclohexylmethyl-6-hydroxy-1H-indazol-5-yl)-[5-(3-dimethylaminopropoxy)-1,3-dihydroisoindol-22-yl]methanone]
26 | 0.01 to 1 | CCN(C)CCOc1ccc2c(c1)CN(C(=O)c1cc3c(CCC(C)C)n[nH]c3cc1O)C2 [Compound A36, {5-[2-(Ethylmeethylamino)ethoxy]-1,3-dihydroisoindol-22-yl}-[6-hydroxy-3-(3-methylbutyl)-1H-indazol-5-yl]methanone]
27 | 0.01 to 1 | CCN(C)CCOc1ccc2c(c1)CN(C(=O)c1cc3c(CC4CCCC4)n[nH]c3cc1O)C2 [Compound A37, (3-Cyclopentylmethyl-6-hydroxy-1H-indazol-5-yl)-{5-[2-(ethylmethylamino)ethoxy]-1,3-dihydroisoindol-2-yl}methanone]
28 | 0.01 to 1 | CCN(C)CCOc1ccc2c(c1)CN(C(=O)c1cc3c(CC4CCCCC4)n[nH]c3cc1O)C2 [Compound A38, (3-Cyclohexylmethyl-6-hydroxy-1H-indazol-5-yl)-{5-[2-(ethylmethylamino)ethoxy]-1,3-dihydroisoindol-2-yl}methanone]
29 | 0.01 to 1 | CC(C)CCc1n[nH]c2cc(O)c(C(=O)N3Cc4ccc(OCCN5CCCCC5)cc4C3)cc12 [Compound A39, [6-Hydroxy-3-(3-methylbutyl)-1H-indazol-5-yl]-[5-(2-piperidin-1-ylethoxy)-1,3-dihydroisoindol-2-yl]methanone]
30 | 0.01 to 1 | O=C(c1cc2c(CC3CCCC3)n[nH]c2cc1O)N1Cc2ccc(OCCN3CCCCC3)cc2C1 [Compound A40, (3-Cyclopentylmethyl-6-hydroxy-1H-indazol-5-yl)-[5-(2-piperidin-1-ylethoxy)-1,3-dihydroisoindol-2-yl]methanone]
31 | 0.01 to 1 | O=C(c1cc2c(CC3CCCCC3)n[nH]c2cc1O)N1Cc2ccc(OCCN3CCCCC3)cc2C1 [Compound A41, (3-Cyclohexylmethyl-6-hydroxy-1H-indazol-5-yl)-[5-(2-piperidin-1-ylethoxy)-1,3-dihydroisoindol-2-yl]methanone]
32 | 0.01 to 1 | N#CCCCOc1ccc2c(c1)CN(C(=O)c1cc3c(CC4CCCC4)n[nH]c3cc1O)C2 [Compound A43, 4-[2-(3-Cyclopentylmethyl-6-hydroxy-1H-indazole-5-carbonyl)-2,3-dihydro-1H-isoindol-5-yloxy]butyronitrile]
33 | 0.01 to 1 | O=C(c1cc2c(CC3CCCCC3)n[nH]c2cc1O)N1Cc2ccc(OCCN3CCOCC3)cc2C1 [Compound A47, (3-Cyclohexylmethyl-6-hydroxy-1H-indazol-5-yl)-[5-(2-morpholin-4-ylethoxy)-1,3-dihydroisoindol-2-yl]methanone]
34 | 1 to 10 | CCCc1n[nH]c2cc(O)c(C(=O)N3Cc4ccccc4C3C(=O)NCC)cc12 (stereo not drawn) [Compound A48, N-Ethyl-2-(6-hydroxy-3-propyl-1H-indazole-5-carbonyl)-2,3-dihydro-1H-isoindole-1-carboxamide]
35 | 0.01 to 1 | CC(C)Cc1n[nH]c2cc(O)c(C(=O)N3Cc4ccccc4C3)cc12 [Compound A49, (1,3-Dihydroisoindol-2-yl)(6-hydroxy-3-isobutyl-1H-indazol-5-yl)methanone]
36 | 0.01 to 1 | O=C(c1cc2c(CC3CCCCC3)n[nH]c2cc1O)N1Cc2ccccc2C1 [Compound A50, (3-Cyclohexylmethyl-6-hydroxy-1H-indazol-5-yl)-(1,3-dihydroisoindol-2-yl)methanone]
